Laboratory results reported in PMC8870237, “Improved Multimodal Tumor Necrosis Imaging with IRDye800CW-DOTA Conjugated to an Albumin-Binding Domain” (Cancers, 2022).
“Also recorded” adds a separate entry of the source.

Key:
[1] = In vivo stability (radio-HPLC of urine 1 h after injection); parameters: species or system mouse; conditions: mice, i.v., 1 h p.i.
Excerpt: After an hour, the mice were sacrificed by cervical dislocation and blood and urine were collected, which were frozen in liquid nitrogen directly after extraction. […] The supernatant was collected and analyzed by radio-HPLC (Method-D).

4T1-Luc2 cells [2] = assay: In vitro dead/alive cell binding assay (fluorescence and γ-counting); type: cell-based, mouse; conditions: 100 nM, EtOH-killed or alive 4T1-Luc2 cells; for dead/alive cell binding, radioactivity: indium-111 labeled, 2.5 MBq/nmol, γ-counting; for dead/alive cell binding, fluorescence signal: non-radioactive precursors, 30 min, 37 °C, 800 nm
Protocol: The 4T1-Luc2 cells were cultured in RPMI-1640 medium containing 10% fetal bovine, penicillin (100 U/mL), and streptomycin ([…]) 37 °C under a humidified atmosphere with 5% CO2. The cells were seeded in 24 well plates (1 × 10^5 cells per well). The next day, the cells were killed with EtOH (70%, 50 μL) or kept alive and incubated for 30 min at 37 °C with 100 nM of the NACAs in culturing medium. The plate was then imaged on an Odyssey (Li-Cor, 800 nm laser intensity 5.0).
Similarly, these killed and alive cells were incubated with the indium-111 labeled NACAs (100 nM, 2.5 MBq/nmol) in culturing medium. The cells were washed with PBS and collected with NaOH (1.0 M) for γ-counting. These experiments were performed as triplicates.

MCF7-Luc2 tumors = assay: Tumor uptake in doxorubicin- or saline-treated MCF7-Luc2 tumor-bearing mice; type: in vivo, mouse; conditions: 1 h p.i., ±SEM
Protocol: (§1) The quadruple modality imaging procedure is illustrated in Figure S21. The tumor-bearing mice were injected with [^111In]3 (20 MBq, 2 nmol) in 200 µL PBS into the tail vein. The following day, the mice fasted for four hours before they were injected with [^18F]FDG (10 MBq, 200 µL) in PBS. At 24 h p.i. of [^111In]3 and 1 h p.i. of [^18F]FDG, FLI imaging was performed with a 730 nm excitation and 760 nm emission filter for 400 ms with 4 × 4 binning. Then, the mice received an intraperitoneal injection of D-luciferin (150 mg/kg) maintaining the position of the mice in the bed unaltered. During the onset of the bioluminescence signal, PET/SPECT imaging was performed of the tumors with a 2 cm axial field of view over a total scan time of 30 min, followed by a 2 min full-body CT. Finally, BLI imaging was performed with an open filter for 400 ms with 4 × 4 binning. Imaging was performed under isoflurane anesthesia whilst maintaining the body temperature constant.
Six mice were inoculated bilaterally with MCF7-Luc2 cells (3.0 × 10^6), suspended in 30 µL PBS:Matrigel (1:1; v/v). On days 14, 16, and 18 after inoculation, the tumor-bearing mice received either doxorubicin (5 mg/kg, Janssen Pharmaceuticals, Beerse, Belgium) or a saline solution via i.v. injection. On days 21 and 22 after inoculation, the mice underwent the FLI, BLI, and PET/SPECT/CT imaging procedure (vide supra).
(§2) After the final imaging experiments, the mice were sacrificed by cervical dislocation, tumors and organs were collected, weighted, and activity was accurately quantified by γ-counting to determine radioactivity uptake in the percentage of injected dose per gram (%ID/g). After γ-counting, the tumors were frozen in liquid nitrogen and stored at −80 °C overnight. Adjacent cryosections (10 µm) were prepared of the tumor centers for autoradiography. The sections were stored at −20 °C for the radioactivity to decay, before 800 nm fluorescence imaging and histochemical dead cell staining.

EMT6-Luc2 tumors = assay: Tumor uptake in EMT6-Luc2 tumor-bearing mice; type: in vivo, mouse; conditions: untreated, 1 h p.i., ±SEM
Protocol: as §1, with “constant. […]” for “constant.”
as §2, with “After γ-counting, the tumors were frozen in liquid nitrogen and stored at −80 °C overnight. Adjacent cryosections (10 µm) were prepared of the tumor centers for autoradiography.” left out

[3] = n-octanol/PBS distribution coefficient (LogD7.4); type: physicochemical; conditions: LogD7.4, indium-111 labeled material, triplicates
Protocol: The [^111In]1, [^111In]2, and [^111In]3 were labeled at a molar activity of 10 MBq/nmol and 100 kBq was added to n-octanol (500 µL) and PBS (500 µL). After vigorous vortexing, the vial was centrifuged at 16.1 × 1000 g for 3 min. The octanol phase was carefully pipetted into a new vial and both layers were centrifuged again. From both the organic and the aqueous layers, samples (10 µL) were taken out and counted for activity on a γ-counter. LogD values were calculated as follows: Log ([NACA]n-octanol/[NACA]PBS). These experiments were performed as triplicates.

[4] = In vitro protein binding in mouse serum (ultrafiltration); type: in vitro ADME; conditions: 37 °C, 30 min, indium-111 labeled material
Protocol: Protein binding of the NACAs was determined as reported elsewhere. The NACAs were labeled with indium-111 (50 MBq/nmol), added to mouse serum (1 MBq/500 µL), and incubated at 37 °C for 30 min. Four portions of 10 µL were taken and counted on a γ-counter. The remaining serum was transferred to a centifree ultrafiltration device (4104 centrifugal filter units; Millipore, 30 kDa nominal molecular weight limit, methylcellulose micro partition membranes equilibrated once with 5% v/v Tween-80 in phosphate-buffered saline (PBS) and then trice with PBS) and centrifuged at 7.0 × 1000 g for 40 min at room temperature. Four portions of 10 µL from the filtrates were counted for radioactivity in a γ-counter. The amount of plasma-bound radioligand was calculated as the fraction between the radioactivity measured in the filtrate portions relative to the corresponding loading solution (set to 100%).

4T1-Luc2 cells [5] = assay: Fluorescence microscopy of dead and alive cells; type: cell-based, mouse; conditions: unlabeled, 100 nM, 30 min, 37 °C
Protocol: The 4T1-Luc2 cells were seeded on 10 mm diameter coverslips in 24 well plates (10^5 cells per well). The cells were kept alive or killed with 50 µL EtOH (70%) and incubated in culturing medium with or without unlabeled 3 (100 nM) for 30 min at 37 °C. The cells were gently washed with PBS three times and incubated with Calcein-AM (CAM, 2 µM) and propidium iodide (PI, 4 µM) in PBS for 30 min at 37 °C [24]. Then, the cells were fixated with PFA (4% in PBS, 10 min, RT) and nuclei were stained with DAPI (Sigma-Aldrich, 1:1000 in PBS, 5 min). After final washing with PBS, the coverslips were removed from the well plate and mounted on a microscope slide for fluorescence microscope imaging at 20× magnification.

4T1-Luc2 tumors = system: 4T1-Luc2 tumors; parameters: method as in PMID 32514888; conditions: comparison value; cited from earlier work

SMILES	LogD [3]	Protein Binding [4] [%]	dead/alive cell binding, fluorescence signal (4T1-Luc2 cells [2])	other results
CC1(C)C(=CC=C2CCCC(C=CC3=[N+](CCCCCC(=O)NCCCC[C@H](NC(=O)[C@H](CCCCNC(=O)CCCc4ccc(I)cc4)NC(=O)CN4CCN(CC(=O)[O-])CCN(CC(=O)[O-])CCN(CC(=O)[O-])CC4)C(N)=O)c4ccc(S(=O)(=O)O)cc4C3(C)C)=C2Oc2ccc(S(=O)(=O)O)cc2)N(CCCCS(=O)(=O)O)c2ccc(S(=O)(=O)O)cc21.[111In+3] [[^111In]2]	–	–	–	in vivo stability [1]: decomposed after an hour; dead/alive cell binding, radioactivity (4T1-Luc2 cells [2]): increased as compared to [^111In]1
OC[C@H]1OC(O)[C@H]([18F])[C@@H](O)[C@@H]1O (stereo partly drawn) [[^18F]FDG, reference compound]	–	–	–	tumor uptake of [18F]FDG (MCF7-Luc2 tumors; after doxorubicin treatment (5 mg/kg i.v., 3 injections)): 1.79 ± 0.11 %ID/g; tumor uptake of [18F]FDG (MCF7-Luc2 tumors; after saline treatment (control)): 3.02 ± 0.51 %ID/g; tumor uptake of [18F]FDG (EMT6-Luc2 tumors): 4.13 ± 0.58 %ID/g
NCCCC[C@H](NC(=O)CCCc1ccc(I)cc1)C(=O)NCc1ccc(CNC(=O)CN2CCN(CC(=O)[O-])CCN(CC(=O)[O-])CCN(CC(=O)[O-])CC2)cc1.[111In+3] [[^111In]8]	–	–	–	dead/alive cell binding, radioactivity (4T1-Luc2 cells [2]): did not show considerable dead cell binding
CC1(C)C(=CC=C2CCCC(C=CC3=[N+](CCCCCC(=O)NCCCCC(NC(=O)C(CCCCNC(=O)CCCc4ccc(I)cc4)NC(=O)CN4CCN(CC(=O)O)CCN(CC(=O)O)CCN(CC(=O)O)CC4)C(N)=O)c4ccc(S(=O)(=O)O)cc4C3(C)C)=C2Oc2ccc(S(=O)(=O)O)cc2)N(CCCCS(=O)(=O)O)c2ccc(S(=O)(=O)O)cc21 (stereo not drawn) [Compound 2]	−2.47 ± 0.01	95 ± 0.1	considerably stronger binding to the dead cells than compound 1	–
CC1(C)C(/C=C/C2=C(Oc3ccc(S(=O)(=O)O)cc3)C(=C/C=C3\N(CCCCS(=O)(=O)O)c4ccc(S(=O)(=O)O)cc4C3(C)C)/CCC2)=[N+](CCCCCC(=O)NCCCC[C@@H](NC(=O)CCCc2ccc(I)cc2)C(=O)NCc2ccc(CNC(=O)CN3CCN(CC(=O)O)CCN(CC(=O)O)CCN(CC(=O)O)CC3)cc2)c2ccc(S(=O)(=O)O)cc21 [Compound 3]	−2.73 ± 0.14	94 ± 0.2	considerably stronger binding to the dead cells than compound 1	NIR-fluorescence binding to dead and alive cells (microscopy) (4T1-Luc2 cells [5]): distinct NIR-fluorescent signal was observed from dead cells; also recorded: binds to dead cells and not to alive cells
CC1(C)C(=CC=C2CCCC(C=CC3=[N+](CCCCCC(=O)NCCOCCOCCOCCOCCNC(=O)CN4CCN(CC(=O)O)CCN(CC(=O)O)CCN(CC(=O)O)CC4)c4ccc(S(=O)(=O)O)cc4C3(C)C)=C2Oc2ccc(S(=O)(=O)O)cc2)N(CCCCS(=O)(=O)O)c2ccc(S(=O)(=O)O)cc21 [Compound 1]	−3.58 ± 0.07	70 ± 0.9	specifically bound to dead cells and not to live cells	–
CC1(C)C(=CC=C2CCCC(C=CC3=[N+](CCCCCC(=O)NCCOCCOCCOCCOCCNC(=O)CN4CCN(CC(=O)[O-])CCN(CC(=O)[O-])CCN(CC(=O)[O-])CC4)c4ccc(S(=O)(=O)O)cc4C3(C)C)=C2Oc2ccc(S(=O)(=O)O)cc2)N(CCCCS(=O)(=O)O)c2ccc(S(=O)(=O)O)cc21.[111In+3] [[^111In]1, [^111In]In-DOTA-PEG4-IRDye800CW]	–	70	–	radioactive tumor uptake in the SPECT images (4T1-Luc2 tumors): 0.26 ± 0.05 %ID/mL
